The text below walks through data of ChEMBL document CHEMBL1201862, “PubChem BioAssay data set” (2004).

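A five-concentration, 48-hour dose response in 96-well plates underlies each endpoint, interpolated linearly between surrounding concentrations. GI50 = concentration required for 50% inhibition of growth.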 Active and inactive are the calls of the source. Rule as the data show it: active = GI50 up to about 1.1 µM and inactive = higher.

Some test systems named below: SNB-75; NCI-H226; BT-549; EKVX; COLO 205; HL-60; SF-539; PC-3; OVCAR-5; RXF 393; MDA-MB-231; MDA-N; M14; U-251; Malme-3M; NCI-H23; DLD-1; SNB-78; KM-20L2.
Assay in all cases: NCI-60 cell line screen, 48 h

On to `O=c1c2cc(O)c(O)cc2oc2cc(O)c(C3OC(CO)C(O)C(O)C3O)c(O)c12` (configuration not stated), for which the GI50 in the test on SNB-75, in the test with NCI-H226, in the test with BT-549, in the test with EKVX, with COLO 205 and in the test with HL-60 was > 100 µM (inactive) in each case. Further, the GI50 in the test on SF-539, with PC-3, in the test on OVCAR-5, in the test on RXF 393, with MDA-MB-231 and with MDA-N was > 100 µM (inactive) throughout. For the same compound, the GI50 in the test with M14, in the test with U-251, in the test with Malme-3M and in the test with NCI-H23 was > 100 µM (inactive) in each case.

In the case of `CCOc1ccccc1N1C(=O)C(=O)C(c2nc3ccccc3o2)/C(=N\N)C1=O` (configuration not stated), the GI50 was 27.7 µM (inactive) in the test on SNB-75; > 100 µM (inactive) with NCI-H226; > 100 µM (inactive) in the test on EKVX; > 100 µM (inactive) in the test on COLO 205; > 100 µM (inactive) with HL-60; > 100 µM (inactive) in the test with SF-539. For the same compound, the GI50 in the test with OVCAR-5, in the test on RXF 393, in the test with DLD-1, in the test with SNB-78, in the test with M14 and in the test on U-251 was > 100 µM (inactive) in each case. Besides, the GI50 in the test on Malme-3M, with KM-20L2 and in the test on NCI-H23 was > 100 µM (inactive) in each case.

For `Clc1ccccc1CN1COc2c(ccc3cccnc23)C1`, the GI50 in the test with SNB-75 was 7.91 µM (inactive); in the test with NCI-H226, 3.87 µM (inactive); with EKVX, 4.46 µM (inactive); in the test with COLO 205, 8.38 µM (inactive); in the test on HL-60 it was 1.83 µM (inactive); in the test with SF-539, 3.59 µM (inactive). Moreover, the GI50 in the test on OVCAR-5 is 7.41 µM (inactive); in the test on RXF 393, 3.4 µM (inactive); in the test on DLD-1, 4.66 µM (inactive); in the test on SNB-78, 3.37 µM (inactive); in the test on M14, 2.59 µM (inactive); in the test on U-251, 5.6 µM (inactive). For the same compound, the GI50 with Malme-3M was 4.78 µM (inactive); in the test on KM-20L2, 15.7 µM (inactive); in the test on NCI-H23, 1.62 µM (inactive).

Consider `COC(=O)C1C(=O)CC2CCCCC21` (configuration not stated), for which the GI50 with SNB-75, in the test with NCI-H226, in the test with COLO 205, in the test with HL-60, in the test on SF-539 and in the test with RXF 393 was > 100 µM (inactive) throughout. In addition, the GI50 in the test with DLD-1, in the test on SNB-78, in the test with M14, in the test with U-251, with Malme-3M and in the test on KM-20L2 was > 100 µM (inactive) in each case.

In the case of `Cc1nc(Cl)c(C)c(Cl)n1`, the GI50 is > 100 µM (inactive) in the test with SNB-75; > 100 µM (inactive) in the test on NCI-H226; > 100 µM (inactive) in the test with BT-549; > 27 µM (inactive) with EKVX; > 100 µM (inactive) with COLO 205; 8.59 µM (inactive) with HL-60. The GI50 was > 100 µM (inactive) in the test with SF-539; > 93.3 µM (inactive) with PC-3; > 100 µM (inactive) in the test with OVCAR-5; > 100 µM (inactive) in the test on RXF 393; > 100 µM (inactive) with MDA-MB-231; 18.8 µM (inactive) with MDA-N. The GI50 with M14 was 37.7 µM (inactive); in the test on U-251 it was > 100 µM (inactive); in the test with Malme-3M, > 100 µM (inactive); in the test with NCI-H23, 35.3 µM (inactive).

As to `CCOC(=O)C(=O)Nc1ccc(C)c(C)c1`, the GI50 was > 100 µM (inactive) with SNB-75; > 100 µM (inactive) with NCI-H226; > 100 µM (inactive) with EKVX; 17.1 µM (inactive) in the test with COLO 205; > 54.8 µM (inactive) in the test on HL-60; > 100 µM (inactive) in the test on SF-539. Further, the GI50 with OVCAR-5, in the test on RXF 393, with DLD-1, in the test with SNB-78, with M14 and with U-251 was > 100 µM (inactive) in each case. In addition, the GI50 with Malme-3M, with KM-20L2 and in the test on NCI-H23 was > 100 µM (inactive) throughout.

Regarding `COc1ccc2cc1Oc1ccc(cc1)CC1c3cc(c(OC)cc3CCN1C)Oc1c3c(cc4c1C(C2)N(C)CC4)OCO3` (configuration not stated), the GI50 in the test on SNB-75 is 3.74 µM (inactive); in the test on NCI-H226, 2.35 µM (inactive); in the test with EKVX, 14.9 µM (inactive); with COLO 205, 3.89 µM (inactive); in the test on HL-60, 1.92 µM (inactive); with SF-539 it was 2.34 µM (inactive). Besides, the GI50 with OVCAR-5 is 18.2 µM (inactive); with RXF 393, 1.83 µM (inactive); with DLD-1 it was 17 µM (inactive); in the test with SNB-78 it was 13.9 µM (inactive); in the test on M14, 1.87 µM (inactive); with U-251 it was 5.14 µM (inactive). The results for the GI50 with KM-20L2 and with NCI-H23 were 2.08 µM (inactive) and 17 µM (inactive), respectively.

Turning to `OC(c1cc2ccccc2[nH]1)C(O)(c1cc2ccccc2[nH]1)c1cc2ccccc2[nH]1` (configuration not stated), the GI50 in the test with NCI-H226 was 11.8 µM (inactive); in the test on EKVX, 12.3 µM (inactive); with COLO 205, 4.44 µM (inactive); in the test with HL-60, 7.91 µM (inactive); in the test on SF-539, 41.4 µM (inactive); in the test on OVCAR-5, 57.8 µM (inactive). For the same compound, the GI50 was 7.18 µM (inactive) with RXF 393; 11 µM (inactive) in the test on DLD-1; 25.8 µM (inactive) with U-251; 28.4 µM (inactive) in the test on Malme-3M; 10.1 µM (inactive) in the test with KM-20L2; 5.83 µM (inactive) with NCI-H23.

With `Fc1nc(Sc2ncnc3nc[nH]c23)nc(-c2c3ccccc3c3sc4ccccc4n23)n1`, the GI50 in the test with SNB-75, in the test on NCI-H226, in the test on BT-549, in the test with EKVX, in the test with COLO 205 and with HL-60 was > 100 µM (inactive) each time. The GI50 with SF-539, with PC-3, in the test on OVCAR-5, in the test with RXF 393, in the test on MDA-MB-231 and with MDA-N was > 100 µM (inactive) throughout. Also, the GI50 with M14 was 43.3 µM (inactive); in the test on U-251, > 100 µM (inactive); with Malme-3M, > 100 µM (inactive); in the test with NCI-H23, > 100 µM (inactive).

In the case of `CC1C2CC=CC(=O)[C@@]2(C)CCC12OCCO2` (some centres not stated), the GI50 with SNB-75 is 97.3 µM (inactive); in the test on NCI-H226, > 100 µM (inactive); with EKVX, > 100 µM (inactive); with HL-60, > 10 µM (inactive); in the test with SF-539, > 100 µM (inactive); in the test with OVCAR-5 it was > 100 µM (inactive). For the same compound, the GI50 in the test on RXF 393 is > 100 µM (inactive); in the test with DLD-1 it was > 100 µM (inactive); in the test on SNB-78, > 100 µM (inactive); in the test with M14 it was 97.1 µM (inactive); in the test with U-251, > 100 µM (inactive); with Malme-3M, 17.5 µM (inactive). In addition, the results for the GI50 in the test on KM-20L2 and in the test on NCI-H23 were 49.9 µM (inactive) and > 100 µM (inactive), respectively.

Turning to `CC1=C[C@@H](C)C[C@]2(C)CC[C@H](O2)[C@]23CC[C@](CO)(C[C@H](O2)[C@@H]2O[C@@](C)(CC2=O)[C@@H](O)[C@H]2CC[C@@]4(CCC[C@@H](O4)[C@H](C)C(=O)O[C@H]4C[C@H]([C@]5(O)OCC[C@H](C)[C@@H]5O)O[C@H]4C=C1)O2)O3`, the GI50 with SNB-75 was 0.001 µM (active); in the test with NCI-H226 it was 0.00386 µM (active); in the test on BT-549, 0.0127 µM (active); with EKVX, 0.013 µM (active); with COLO 205, 0.00192 µM (active); in the test with HL-60, 0.0809 µM (active). The GI50 in the test on SF-539 was 0.00272 µM (active); with PC-3, 0.0137 µM (active); with OVCAR-5 it was 0.0316 µM (active); in the test on RXF 393, 0.0118 µM (active); in the test on MDA-MB-231 it was 0.0225 µM (active); with MDA-N, 0.0951 µM (active). Also, the GI50 in the test with M14 is 0.0258 µM (active); with U-251, 0.022 µM (active); in the test on Malme-3M it was 0.00873 µM (active); in the test on NCI-H23, 0.0935 µM (active).

`Cn1cnc2c(NCc3ccccc3)nc(NCCO)nc21` [OLOMOUCINE]: the GI50 was 21.3 µM (inactive) with SNB-75; 51.3 µM (inactive) in the test on NCI-H226; 53.1 µM (inactive) in the test on BT-549; 94.4 µM (inactive) in the test with EKVX; 30.1 µM (inactive) in the test on COLO 205; 36.9 µM (inactive) with HL-60. Further, the GI50 was 42.2 µM (inactive) in the test with SF-539; 98.2 µM (inactive) in the test with PC-3; 53 µM (inactive) in the test with OVCAR-5; 67 µM (inactive) in the test on RXF 393; 92.7 µM (inactive) with MDA-MB-231; 79.4 µM (inactive) in the test on MDA-N. Moreover, the GI50 in the test with M14 was 78.9 µM (inactive); in the test on U-251, 64.4 µM (inactive); in the test on Malme-3M, 98.2 µM (inactive); in the test on NCI-H23, 59.6 µM (inactive).

On to `CCC1(c2ccncc2)CCC(=O)NC1=O` (configuration not stated) [ROGLETIMIDE], for which the GI50 with SNB-75, in the test with NCI-H226, in the test on EKVX, with COLO 205, in the test with HL-60 and in the test with SF-539 was > 100 µM (inactive) in each case. For the same compound, the GI50 with OVCAR-5, in the test with RXF 393, in the test with DLD-1, in the test with SNB-78, in the test on M14 and in the test on U-251 was > 100 µM (inactive) throughout. The GI50 in the test with Malme-3M, with KM-20L2 and in the test on NCI-H23 was > 100 µM (inactive) each time.
